Data set [1] can be described thus: Polymorphic stability on storage, checked by XRPD. It counts as physicochemical. As to conditions: stored 3 months in self-sealing polyethylene bag, normal atmospheric conditions, room temperature. As for the experimental part:
The process of the present invention provides stable co-crystals of aripiprazole with fumaric acid. The term “stable crystalline form” refers to stability of the crystalline form under the standard temperature and humidity conditions of testing of pharmaceutical products, wherein the stability is indicated by preservation of the original polymorphic form.
Aripiprazole was prepared according to the process given in Example 2 and was packaged in a self-sealing polyethylene bag. The material was stored for 3 months under normal atmospheric conditions at room temperature and checked for polymorphic stability.

The conditions of data set [2]: cited from earlier work.

On to `O=C(O)C=CC(=O)O.O=C1CCc2ccc(OCCCCN3CCN(c4cccc(Cl)c4Cl)CC3)cc2N1.O=C1CCc2ccc(OCCCCN3CCN(c4cccc(Cl)c4Cl)CC3)cc2N1` [Example 2], for which, in data set [1], the “polymorphic stability (maintenance of the original XRPD pattern)” value is given as “retain its polymorphic form”.

Turning to `O=C1CCc2ccc(OCCCCN3CCN(c4cccc(Cl)c4Cl)CC3)cc2N1` [aripiprazole, 7-[4-[4-(2,3-dichlorophenyl)-1-piperazinyl]butoxy]-3,4-dihydrocarbostyril], in data set [2], the “solubility in aqueous media” value is listed as “practically insoluble”.

The record behind these values is patent US20090054455A1, “ARIPIPRAZOLE CO-CRYSTALS” (DR. REDDY'S LABORATORIES LTD., priority 2006, published 2009).
